{"source": "patent US8664392B2", "about": "“Pyrazine derivatives for bioconjugation” (MediBeacon, LLC, priority 2004, dated 2014)", "origin": "cited, not measured here", "details": "absorb and emit in the blue to orange regions"}
{"compound": "Nc1nc(C(=O)O)c(N)nc1C(=O)O", "note": "[3,6-diamino-2,5-pyrazine-dicarboxylic acid]", "values": [{"measurement": "Stokes shift", "result": "~100", "unit": "nm"}]}
